From article PMC10663540, “Structure-based discovery of dual pathway inhibitors for SARS-CoV-2 entry” (Nature Communications, 2023)
Values joined by “and” are separate entries in the source; they are usually repeats but may differ in a detail not shown here. Equal entries are not always repeated. Where two headings read alike, the source gives them in different places.

How the values were obtained:
TMPRSS2 [1] = target: T1, TMPRSS2 (Homo sapiens, UniProt O15393); assay: biochemical; assay type: biochemical; details: for inhibition at 0.000610352 µM / inhibition at 0.0012207 µM / inhibition at 0.00244141 µM / inhibition at 0.00488281 µM / inhibition at 0.00976562 µM / inhibition at 0.0195312 µM / inhibition at 0.0390625 µM / inhibition at 0.078125 µM / inhibition at 0.15625 µM / inhibition at 0.3125 µM / inhibition at 0.625 µM / inhibition at 1.25 µM / inhibition at 2.5 µM / inhibition at 5 µM: read-out: Inhibition: TMPRSS2
Target sequence in this assay (O15393 256-492): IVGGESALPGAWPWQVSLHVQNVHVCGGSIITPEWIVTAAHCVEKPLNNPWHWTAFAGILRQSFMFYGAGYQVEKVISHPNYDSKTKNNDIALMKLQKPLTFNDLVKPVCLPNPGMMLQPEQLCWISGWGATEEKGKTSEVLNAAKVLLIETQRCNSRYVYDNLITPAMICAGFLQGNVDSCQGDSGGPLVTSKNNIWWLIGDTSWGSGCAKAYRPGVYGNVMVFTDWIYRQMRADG
Target sequence in this assay (O15393 other isoform, or with tags, fused parts or gaps): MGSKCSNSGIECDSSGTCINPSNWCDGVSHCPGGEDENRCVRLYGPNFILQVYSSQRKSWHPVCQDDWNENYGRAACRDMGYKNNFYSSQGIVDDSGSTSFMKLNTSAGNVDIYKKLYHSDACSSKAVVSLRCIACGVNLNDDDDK

SARS-CoV-2 = assay type: cell-based
Calu-3 cells = details: rep1-rep3
in vitro = details: human
TMPRSS2 [2] = target: T1, TMPRSS2
Target sequence in this assay (O15393 with tags, fused parts or gaps): as the sequence (O15393 other isoform, or with tags, fused parts or gaps) above
Target sequence in this assay (O15393 256-492): as the sequence (O15393 256-492) above

For CC(C)(NS(=O)(=O)c1ccc2c(Cl)cnc(N=C(N)N)c2c1)C(=O)O [UK-371804], the “Inhibition: TMPRSS2” value (TMPRSS2 [1]; 0.038147 nM, rep1-rep4, 3.8147e-05 µM) was 0.08% and 2.54% and 1.84% and 2.81%, the “Inhibition: TMPRSS2” value (TMPRSS2 [1]; 0.076294 nM, rep1-rep4, 7.6294e-05 µM) was 0.83% and 3.15% and 2.99% and 4.15% and the “Inhibition: TMPRSS2” value (TMPRSS2 [1]; 0.152588 nM, rep1-rep4, 0.000152588 µM) was 1.86% and 5.33% and 3.17% and 6.82%. For the same compound, the inhibition at 0.000305176 µM (TMPRSS2 [1]; 0.305176 nM, rep1-rep4) was 5.7%, the “Inhibition: TMPRSS2” value (TMPRSS2 [1]; 0.305176 nM, rep1-rep4, 0.000305176 µM) was 8.86% and 5.77% and 9.17% and the IC50 (TMPRSS2 [1]; 0.5 nM TMPRSS2, 10 μM substrate, mean ± SD, four replicates) was 0.00459 µM. For the same compound, the “Inhibition: TMPRSS2” value (TMPRSS2 [1]; 0.610352 nM, rep1-rep4, 0.000610352 µM) was 13.28% and 12.75% and 14.23%, the inhibition at 0.000610352 µM (TMPRSS2 [1]; 0.610352 nM, rep1-rep4) was 10.6% and the “Inhibition: TMPRSS2” value (TMPRSS2 [1]; 1.2207 nM, rep1-rep4, 0.0012207 µM) was 21.81% and 21.57% and 22.98%. For the same compound, the inhibition at 0.0012207 µM (TMPRSS2 [1]; 1.2207 nM, rep1-rep4) was 19.4%, the “Inhibition: TMPRSS2” value (TMPRSS2 [1]; 2.44141 nM, rep1-rep4, 0.00244141 µM) was 37.42% and 35.32% and 36.99% and the inhibition at 0.00244141 µM (TMPRSS2 [1]; 2.44141 nM, rep1-rep4) was 34.9%. For the same compound, the “Inhibition: TMPRSS2” value (TMPRSS2 [1]; 4.88281 nM, rep1-rep4, 0.00488281 µM) was 52.70% and 52.38% and 53.49%, the inhibition at 0.00488281 µM (TMPRSS2 [1]; 4.88281 nM, rep1-rep4) was 50.8% and the “Inhibition: TMPRSS2” value (TMPRSS2 [1]; 9.76562 nM, rep1-rep4, 0.00976562 µM) was 69.20% and 69.17%. For the same compound, the inhibition at 0.00976562 µM (TMPRSS2 [1]; 9.76562 nM, rep1-rep4) was 68.8%, the “Inhibition: TMPRSS2” value (TMPRSS2 [1]; 19.5312 nM, rep1-rep4, 0.0195312 µM) was 82.58% and 82.53% and 82.55% and the inhibition at 0.0195312 µM (TMPRSS2 [1]; 19.5312 nM, rep1-rep4) was 82.4%. The “Inhibition: TMPRSS2” value (TMPRSS2 [1]; 39.0625 nM, rep1-rep4, 0.0390625 µM) was 90.09% and 90.26% and 90.84%, the inhibition at 0.0390625 µM (TMPRSS2 [1]; 39.0625 nM, rep1-rep4) was 90.6% and the “Inhibition: TMPRSS2” value (TMPRSS2 [1]; 78.125 nM, rep1-rep4, 0.078125 µM) was 94.96% and 95.13% and 95.23%. The inhibition at 0.078125 µM (TMPRSS2 [1]; 78.125 nM, rep1-rep4) was 95.3%, the “Inhibition: TMPRSS2” value (TMPRSS2 [1]; 156.25 nM, rep1-rep4, 0.15625 µM) was 97.46% and 97.80% and 98.15% and the inhibition at 0.15625 µM (TMPRSS2 [1]; 156.25 nM, rep1-rep4) was 97.9%. The “Inhibition: TMPRSS2” value (TMPRSS2 [1]; 312.5 nM, rep1-rep4, 0.3125 µM) was 98.77% and 99.07% and 99.48%, the inhibition at 0.3125 µM (TMPRSS2 [1]; 312.5 nM, rep1-rep4) was 99.1% and the “Inhibition: TMPRSS2” value (TMPRSS2 [1]; 625 nM, rep1-rep4, 0.625 µM) was 100.11% and 99.99% and 100.09%. The inhibition at 0.625 µM (TMPRSS2 [1]; 625 nM, rep1-rep4) was 100%, the “Inhibition: TMPRSS2” value (TMPRSS2 [1]; 1250 nM, rep1-rep4, 1.25 µM) was 100.27% and 100.14% and 100.40% and the inhibition at 1.25 µM (TMPRSS2 [1]; 1250 nM, rep1-rep4) was 101%. For the same compound, the “Inhibition: TMPRSS2” value (TMPRSS2 [1]; 2500 nM, rep1-rep4, 2.5 µM) was 100.86% and 100.80% and 100.93%, the inhibition at 2.5 µM (TMPRSS2 [1]; 2500 nM, rep1-rep4) was 101% and the “Inhibition: TMPRSS2” value (TMPRSS2 [1]; 5000 nM, rep1-rep4, 5 µM) was 102.04% and 102.07% and 102.13%. The inhibition at 5 µM (TMPRSS2 [1]; 5000 nM, rep1-rep4) was 101%, the Virus titer (SARS-CoV-2; UK-371804 1.1 μM, Supplementary Fig. 7c) was 31700 TCID50/ml and 20000 TCID50/ml and the Cytotoxicity (Calu-3 cells; 0.0128 μM) was 4.90% and 4.97% and 4.91%. For the same compound, the Cytotoxicity (Calu-3 cells; 0.064 μM) was 5.03% and 5.08% and 5.05%, the Cytotoxicity (Calu-3 cells; 8 μM) was 8.30% and 8.32% and 8.28% and the Cytotoxicity (Calu-3 cells; 40 μM) was 11.32% and 11.36% and 11.39%. For the same compound, the Cytotoxicity (Calu-3 cells; 200 μM) was 60.70% and 60.73% and 60.71%, the Cytotoxicity (Calu-3 cells; 1000 μM) was 98.32% and 98.37% and 98.33% and the CC50 (in vitro) was 172 µM.

For O=C(O)CN(CCN(CC(=O)O)CC(=O)O)CC(=O)O [EDTA], the “Tm of TMPRSS2” value (TMPRSS2 [2]) was 51.7 °C and 51.6 °C.

In the case of CN(C)C(=O)COC(=O)Cc1ccc(OC(=O)c2ccc(NC(=N)N)cc2)cc1 [Camostat], the “Inhibition: TMPRSS2” value (TMPRSS2 [1]; 38.15 pM) is reported as 2.63% and 1.07% and 2.97% and 3.20%, the “Inhibition: TMPRSS2” value (TMPRSS2 [1]; 76.29 pM) is reported as 3.24% and 1.14% and 2.29% and 3.03% and the “Inhibition: TMPRSS2” value (TMPRSS2 [1]; 0.000152588 µM) is reported as 4.34% and 0.64% and 2.45% and 2.60%. For the same compound, the “Inhibition: TMPRSS2” value (TMPRSS2 [1]; 0.000305176 µM) was 3.31% and 1.96% and 3.39% and 4.38%, the “Inhibition: TMPRSS2” value (TMPRSS2 [1]; 0.000610352 µM) was 3.86% and 5.10% and 6.39% and the “Inhibition: TMPRSS2” value (TMPRSS2 [1]; 0.0012207 µM) was 7.07% and 9.81% and 8.80%. For the same compound, the “Inhibition: TMPRSS2” value (TMPRSS2 [1]; 0.00244141 µM) was 17.35% and 18.09% and 18.86%, the “Inhibition: TMPRSS2” value (TMPRSS2 [1]; 0.00488281 µM) was 31.26% and 30.95% and 31.85% and the “Inhibition: TMPRSS2” value (TMPRSS2 [1]; 0.00976562 µM) was 51.72% and 52.80% and 52.15%. The “Inhibition: TMPRSS2” value (TMPRSS2 [1]; 0.0195312 µM) was 77.54% and 78.82% and 77.32%, the “Inhibition: TMPRSS2” value (TMPRSS2 [1]; 0.0390625 µM) was 94.79% and 94.98% and 94.57% and the “Inhibition: TMPRSS2” value (TMPRSS2 [1]; 0.078125 µM) was 99.75% and 99.96% and 99.42%. For the same compound, the “Inhibition: TMPRSS2” value (TMPRSS2 [1]; 0.15625 µM) was 100.65% and 100.24%, the “Inhibition: TMPRSS2” value (TMPRSS2 [1]; 0.3125 µM) was 99.93% and 100.23% and 99.75% and the “Inhibition: TMPRSS2” value (TMPRSS2 [1]; 0.625 µM) was 100.21% and 100.53% and 100.35%. For the same compound, the “Inhibition: TMPRSS2” value (TMPRSS2 [1]; 1.25 µM) was 99.64% and 100.51%, the “Inhibition: TMPRSS2” value (TMPRSS2 [1]; 2.5 µM) was 100.23% and 100.42% and 100.20% and the “Inhibition: TMPRSS2” value (TMPRSS2 [1]; 5 µM) was 99.87% and 100.54% and 99.70%. It also gave an inhibition at 0.000610352 µM (TMPRSS2 [1]) of 6.23%, an inhibition at 0.0012207 µM (TMPRSS2 [1]) of 9.58% and an inhibition at 0.00244141 µM (TMPRSS2 [1]) of 17.5%. For the same compound, the inhibition at 0.00488281 µM (TMPRSS2 [1]) was 31.5%, the inhibition at 0.00976562 µM (TMPRSS2 [1]) was 52.1% and the inhibition at 0.0195312 µM (TMPRSS2 [1]) was 77.3%. For the same compound, the inhibition at 0.0390625 µM (TMPRSS2 [1]) was 94.7%, the inhibition at 0.078125 µM (TMPRSS2 [1]) was 99.7% and the inhibition at 0.15625 µM (TMPRSS2 [1]) was 100%. For the same compound, the inhibition at 0.3125 µM (TMPRSS2 [1]) was 100%, the inhibition at 0.625 µM (TMPRSS2 [1]) was 100% and the inhibition at 1.25 µM (TMPRSS2 [1]) was 100%. For the same compound, the inhibition at 2.5 µM (TMPRSS2 [1]) was 100%, the inhibition at 5 µM (TMPRSS2 [1]) was 100% and the Virus titer (SARS-CoV-2; Camostat 1.1 μM, Supplementary Fig. 7b) was 7460 TCID50/ml and 6320 TCID50/ml and 12600 TCID50/ml. For the same compound, the Virus titer (SARS-CoV-2; Camostat 3.3 μM, Supplementary Fig. 7b) was 26200 TCID50/ml and 15900 TCID50/ml and 20000 TCID50/ml, the Cytotoxicity (Calu-3 cells; 0.0128 μM) was 0.76% and 0.62% and 0.69% and the Cytotoxicity (Calu-3 cells; 0.064 μM) was 2.27% and 2.13% and 2.46%. The Cytotoxicity (Calu-3 cells; 8 μM) was 7.46% and 7.33% and 7.34%, the Cytotoxicity (Calu-3 cells; 40 μM) was 10.06% and 10.11% and 10.29% and the Cytotoxicity (Calu-3 cells; 200 μM) was 58.17% and 58.19% and 58.30%. The Cytotoxicity (Calu-3 cells; 1000 μM) was 96.27% and 96.26% and 96.22% and the CC50 (in vitro) was 173 µM.
